In patent publication US6875760B2 (Novo Nordisk A/S, priority 1999, dated 2005):

target: T1, cloned human glucagon receptor (Homo sapiens, UniProt P47871); assay: Glucagon Binding Assay (II); conditions: not given
T1 construct: expressed in transfected cells; plasma membrane preparation
T1 sequence (P47871 26-477): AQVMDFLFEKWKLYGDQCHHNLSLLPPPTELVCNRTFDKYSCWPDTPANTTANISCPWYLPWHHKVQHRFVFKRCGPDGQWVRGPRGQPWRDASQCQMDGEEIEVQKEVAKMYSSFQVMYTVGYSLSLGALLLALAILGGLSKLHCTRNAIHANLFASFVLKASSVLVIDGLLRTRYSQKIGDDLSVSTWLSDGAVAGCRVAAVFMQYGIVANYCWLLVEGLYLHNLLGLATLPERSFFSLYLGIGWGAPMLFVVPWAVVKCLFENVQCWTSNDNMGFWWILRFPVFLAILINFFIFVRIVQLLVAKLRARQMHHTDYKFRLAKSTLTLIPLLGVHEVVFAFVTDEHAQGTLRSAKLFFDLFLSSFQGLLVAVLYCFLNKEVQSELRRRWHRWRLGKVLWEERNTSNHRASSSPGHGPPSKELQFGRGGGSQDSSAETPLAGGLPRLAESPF

Compound	IC50 [nM]
CC(C)CC1CCC(N(Cc2ccc(C(=O)NCCC(=O)O)cc2)C(=O)Nc2ccc(OC(F)(F)F)cc2)CC1 (stereo not shown)	140
CC(C)c1ccc(NC(=O)N(Cc2ccc(C(=O)NCCC(=O)O)cc2)C2CCC(C(C)(C)C)CC2)cc1 (stereo not shown) [drawing 1170]	35

same assay, conditions: plasma membranes of BHK cells expressing the receptor; read-out: Glu Bd Assay (II) IC50

Compound	IC50 [nM]
CC(C)(C)C1CCC(N(Cc2ccc(C(=O)Nc3nn[nH]n3)cc2)C(=O)Nc2cc(Cl)cc(Cl)c2)CC1 (stereo not shown) [Example 172, 4-[1-(4-tert-Butylcyclohexyl)-3-(3,5-dichlorophenyl)ureidomethyl]-N-(2H-tetrazol-5-yl)benzamide]	7
CC(C)(C)C1CCC(N(Cc2ccc(C(=O)NCCC(=O)O)cc2)C(=O)Nc2ccc3ccccc3c2)CC1 (stereo not shown) [Example 102, 3-{4-[1-(4-tert-Butylcyclohexyl)-3-naphthalen-2-ylureidomethyl]benzoylamino)propionic acid]	167
O=C(O)CCNC(=O)c1ccc(CN(Cc2cccc(Br)c2)c2ccc(C3CCCCC3)cc2)cc1 [Example 581, 3-(4-{[(3-Bromobenzyl)-(4-cyclohexylphenyl)amino]methyl}benzoylamino)propionic acid]	142
C[C@H](NC(=O)N(Cc1ccc(C(=O)Nc2nn[nH]n2)cc1)c1ccc(C2CCCCC2)cc1)c1ccccc1 [Example 596, 4-[1-(4-Cyclohexylphenyl)-3-((1S)-1-phenylethyl)ureidomethyl]-N-(2H-tetrazol-5-yl)benzamide]	112
O=C(Nc1nn[nH]n1)c1ccc(CN(C(=O)NCc2ccc(Cl)c(Cl)c2)c2ccc(C3CCCCC3)cc2)cc1 [Example 595, 4-[1-(4-Cyclohexylphenyl)-3-(3,4-dichlorobenzyl)ureidomethyl}-N-(2H-tetrazol-5-yl)benzamide]	39
CCCCOC(=O)c1ccc(NC(=O)N(CCC(C)C)Cc2ccc(C(=O)NCCC(=O)O)cc2)cc1	254
CCCCOC(=O)c1ccc(NC(=O)N(Cc2ccc(C(=O)NCCC(=O)O)cc2)C2CCC(C)CC2)cc1 (stereo not shown)	188
CC(C)(C)[C@H]1CC[C@H](N(Cc2ccc(C(=O)Nc3nn[nH]n3)cc2)C(=O)Nc2ccc(OC(F)(F)F)cc2)CC1 [Example 158, 4-[1-(trans-4-tert-Butylcyclohexyl)-3-(4-trifluoromethoxyphenyl)ureidomethyl]-N-(2H-tetrazol-5-yl)benzamide]	7
CCOC(=O)C(C)(C)C1CCC(N(Cc2ccc(C(=O)NCCC(=O)O)cc2)C(=O)Nc2ccc(OC(F)(F)F)cc2)CC1 (stereo not shown) [Example 611, 2-{4-[1-[4-(2-Carboxyethylcarbamoyl)benzyl]-3-(4-trifluoromethoxyphenyl)ureido]cyclohexyl}-2-methylpropionic acid ethyl ester]	437
CC(C)(C)C1CCC(N(Cc2ccc(C(=O)NCCc3nnn[nH]3)cc2)C(=O)Nc2cc(Cl)cc(Cl)c2)CC1 (stereo not shown) [Example 157, 4-[1-(4-tert-Butylcyclohexyl)-3-(3,5-dichlorophenyl)ureidomethyl]-N-[2-(1H-tetrazol-5-yl)ethyl]benzamide]	250
C[C@@H](NC(=O)N(Cc1ccc(C(=O)NCCC(=O)O)cc1)c1ccc(C2CCCCC2)cc1)c1ccc2ccccc2c1 [Example 610, 3-{4-[1-(4-Cyclohexylphenyl)-3-[(1R)-1-(2-naphthyl)ethyl]ureidomethyl]benzoylamino}propionic acid]	118

same assay, conditions: screened at 1 μM; library compounds; read-out: displacement of the glucagon tracer when screened at 1 μM concentration in the glucagon binding assay II

Compound	inhibition at 1 µM [%]
CC(C)(C)C1CCC(N(Cc2ccc(C(=O)Nc3ccc(O)c([N+](=O)[O-])c3)cc2)C(=O)Nc2ccc(OC(F)(F)F)cc2)CC1 (stereo not shown) [Example 163, 4-[1-(4-tert-Butylcyclohexyl)-3-(4-trifluoromethoxyphenyl)ureidomethyl]-N-(4-hydroxy-3-nitrophenyl)benzamide]	> 50
O=C(O)CCNC(=O)c1ccc(CN(C(=O)Nc2cccc(SC(F)(F)F)c2)c2ccc(C3CCCCC3)cc2)o1 [Example 210, 3-({5-[1-(4-cyclohexylphenyl)-3-(3-trifluoromethylsulfanylphenyl)ureidomethyl]furan-2-carbonyl}amino)propionic acid]	> 50
O=C(O)CCNC(=O)c1ccc(CN(Cc2ccccc2OC(F)(F)F)C(=O)Nc2ccc3ccccc3c2)s1 [Example 124, 3-{5-[1-(2-Trifluoromethoxybenzyl)-3-naphthalene-2-ylureidomethyl]thiophene-2-carbonylamino)propionic acid]	> 50
CC1(C)C2CCC(CN(Cc3ccc(OCCCC(=O)O)cc3)C(=O)Nc3ccc(OC(F)(F)F)cc3)C1C2 (stereo not shown) [Example 214, 4-{4-[1-(6,6-Dimethylbicyclo[3.1.1]hept-2-ylmethyl)-3-(4-trifluoromethoxyphenyl)ureidomethyl]phenoxy}butyric acid]	> 50
CC(C)(C)C1CCC(N(Cc2ccc(C(=O)NCCC(=O)O)o2)C(=O)Nc2cccc(SC(F)(F)F)c2)CC1 (stereo not shown) [Example 211, 3-({5-[1-(4-tert-Butylcyclohexyl)-3-(3-trifluoromethylsulfanylphenyl)ureidomethyl]furan-2-carbonyl}amino)propionic acid]	> 50
CC(C)(C)C1CCC(N(Cc2ccc(OCCCC(=O)O)cc2)C(=O)Nc2ccc(Cl)c(C(F)(F)F)c2)CC1 (stereo not shown) [Example 225, 4-{4-[1-(4-tert-Butylcyclohexyl)-3-(4-chloro-3-trifluoromethylphenyl)ureidomethyl]phenoxy}butyric acid]	> 50
CC(C)(C)C1CCC(N(Cc2ccc(C(=O)NCCC(=O)O)o2)C(=O)Nc2ccc(Cl)c(C(F)(F)F)c2)CC1 (stereo not shown) [Example 213, 3-({5-[1-(4-tert-Butylcyclohexyl)-3-(4-chloro-3-trifluoromethylphenyl)ureidomethyl]furan-2-carbonyl}amino)propionic acid]	> 50
CN(CCN(Cc1ccc(C(=O)NCCC(=O)O)cc1)C(=O)Nc1cccc(SC(F)(F)F)c1)C(=O)OC(C)(C)C [Example 207, 3-{4-[1-[2-(N-tert-Butoxycarbonyl-N-methylamino)ethyl]-3-(3-trifluoromethylsulfanylphenyl)ureidomethyl]benzoylamino}propionic acid]	> 50
O=C(O)CCNC(=O)c1ccc(CN(C(=O)Nc2ccc(Cl)c(C(F)(F)F)c2)C2CCC(NC(=O)C(F)(F)F)CC2)cc1 (stereo not shown) [Example 192, 3-(4-{3-(4-Chloro-3-trifluoromethylphenyl)-1-[4-(2,2,2-trifluoroacetylamino)cyclohexyl]ureidomethyl}benzoylamino)propionic acid]	> 50
O=C(O)CCN1C(=O)c2ccc(CN(C(=O)Nc3ccc(Cl)c(C(F)(F)F)c3)c3ccc4nc(S)sc4c3)cc2C1=O [Example 229, 3-{5-[3-(4-Chloro-3-trifluoromethylphenyl)-1-(2-mercaptobenzothiazol-6-yl)ureidomethyl]1,3-dioxo-1,3-dihydro-isoindol-2-yl}propionic acid]	> 50
O=C(O)CCNC(=O)c1ccc(CN(CCc2ccccc2)Cc2ccc(Oc3ccccc3)cc2)cc1 [Example 145, 3-(4-{[(2-Phenylethyl)-(4-phenoxybenzyl)amino]methyl}benzoylamino)propionic acid]	> 50
O=C(O)CCNC(=O)c1ccc(CN(CCc2cccc(Cl)c2)C(=O)Nc2cccc(SC(F)(F)F)c2)cc1 [Example 201, 3-{4-[1-[2-(3-Chlorophenyl)ethyl]-3-(3-trifluoromethylsulfanylphenyl)ureidomethyl]benzoylamino}propionic acid]	> 50
